Assay results from patent US20250333377A1, “SOLID FORM OF NAPHTHYLAMINE MITOPHAGY INDUCER, AND PREPARATION METHOD THEREFOR, PHARMACEUTICAL COMPOSITION THEREOF AND USE THEREOF” (HANGZHOU PHECDAMED CO., LTD., priority 2023, published 2025).
Converted amounts (≈) assume the structure as drawn. Where two headings read alike, the source gives them in different places.

Legend:
[1] = Hygroscopicity (vapor sorption analyser, DVS); format: physicochemical
Description: Single crystalline sample of compound TJ01-013 is tested using a Waters vaporsorption analyser. Taking a dry weighing tray, and laying a single sample of crystal form flat in the weighing tray, and the volume of the loaded samples is about ⅓ to ⅔ of that of the weighing tray. Instrument parameters are set as follows: temperature: 25° C.; equilibrium: dm/dt=0.01%/min (minimum time: 10 minutes, and maximum time: 180 minutes); drying: drying 120 minutes under 0% RH; RH (%) testing gradient: 10%; RH (%) test gradient range: 0%-90%-0%.

[2] = Solubility in FaSSIF, FeSSIF, water and SGF; format: physicochemical; conditions: for solubility at 0.5 h / solubility at 2 h / solubility at 24 h: thermodynamic from solid; for Solubility: SGF
Description: Aliquots of the samples are placed in the media FaSSIF buffer, FeSSIF buffer, water and SGF and tested for solubility at 0.5, 2 and 24 hours, respectively.

[3] = Crystal form conversion (heat treatment, suspension competition test, DSC analysis); format: physicochemical
Text: The mutual conversion relationship among the A, B, C, D crystal forms of the sodium salt is further studied in this embodiment by heat treatment under nitrogen protection and suspension competition test.
However, the methods of heating, suspension pulping as well as grinding can not study the thermodynamic conversion relationship between crystal form A and crystal form D. In order to further study the thermodynamic conversion relationship of crystal form A and crystal form D, analyzed from the DSC pattern, the DSC of crystal form A is shown in FIG. 2, and the DSC of crystal form D is shown in FIG. 11, the melting point of crystal form A is higher than that of crystal form D, whereas the enthalpy of melting of crystal form A is much lower than that of crystal form D. It may be judged from the thermodynamic stability relationship table that if TA>TD, ΔHf, A>ΔHf, D, crystal form A and D is a univariate relationship, crystal form A is stable, if TA>TD, ΔHf, A<ΔHf, D, crystal forms A and D are reciprocal relationships, if the temperature is higher than the transcrystallization temperature, crystal form A is stable, and if the temperature is lower than the transcrystallization temperature, crystal form D is stable.

[4] = biological target: Mcl-1 protein (Homo sapiens, UniProt Q07820); test: Affinity test of recombinant Mcl-1 protein (SPR, Biacore); format: binding
Sequence of Mcl-1 protein (Q07820 whole entry, species assumed): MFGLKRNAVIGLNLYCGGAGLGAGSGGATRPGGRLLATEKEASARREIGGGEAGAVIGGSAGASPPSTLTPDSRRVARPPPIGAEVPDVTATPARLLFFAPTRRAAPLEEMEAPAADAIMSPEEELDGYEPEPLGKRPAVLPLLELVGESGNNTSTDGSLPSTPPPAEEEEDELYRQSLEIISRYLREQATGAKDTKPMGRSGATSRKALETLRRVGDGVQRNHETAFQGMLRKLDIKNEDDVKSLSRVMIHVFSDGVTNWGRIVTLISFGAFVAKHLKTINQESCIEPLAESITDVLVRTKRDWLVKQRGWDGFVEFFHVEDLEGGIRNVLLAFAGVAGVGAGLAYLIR
Text: The binding affinity of the sodium salt D crystal form of TJ01-013 to the Mcl-1 protein is studied by an in vitro Surface Plasmon Resonance (SPR) test, using a Biacore analyzer and measuring with a CM5 chip being coupled to the protein.

[5] = Rat pharmacokinetic test; format: in vivo, SD rats; conditions: for AUC(0-t): read-out: AUC0-24 h; for MRT inf: read-out: MRT0-∞; for MRT last: read-out: MRT0-24 h
Description: The plasma kinetic characteristics of the prototype drugs in healthy SD rats are analyzed after three doses of single gavage administration, a single dose of consecutive multiple gavage administration, and a single dose of intravenous injection administration of the sodium salt D crystal form of TJ01-013. These include the rate of absorption and degree of exposure, individual differences, dose relationship, rate of elimination, attainment of steady state, and possible accumulation of D crystal form of TJ01-013. After SD rats are administrated 10, 30, and 90 mg/kg of D crystal form of TJ01-013 by gavage in a single dose, 30 mg/kg of D crystal form of TJ01-013 by gavage in a single dose once per day for 7 consecutive days, and 10 mg/kg of D crystal form of TJ01-013 by intravenous injection in a single dose, the data of the concentrations of the prototype drugs in plasma at different time points in each animal are calculated by applying WinNonlin software fitting, and the mean pharmacokinetic parameters of each group of 6 animals (half of males and half of females) are summarized as shown in Table 12 below.

[6] = both sexes, SD, rat, plasma, po, 10 mg/kg, SD rats, single gavage, 10 mg/kg
[7] = both sexes, SD, rat, plasma, po, 30 mg/kg, SD rats, multiple gavage, 30 mg/kg once per day for 7 days
[8] = both sexes, SD, rat, plasma, po, 30 mg/kg, SD rats, single gavage, 30 mg/kg
[9] = both sexes, SD, rat, plasma, po, 90 mg/kg, SD rats, single gavage, 90 mg/kg
[10] = both sexes, Sprague-Dawley (SD), rat, plasma, SD rats, single intravenous injection, 10 mg/kg
[11] = both sexes, rat, plasma, po, SD rats, single gavage, 10 mg/kg
[12] = both sexes, rat, plasma, po, SD rats, single gavage, 30 mg/kg
[13] = both sexes, rat, plasma, po, SD rats, single gavage, 90 mg/kg

## O=C(O)C[S+]([O-])c1cc(NS(=O)(=O)c2ccc(Br)cc2)c2ccccc2c1O (stereo not drawn) [Embodiment 4]
[1]; 90% RH, 25° C.
  Percentage weight gain by moisture absorption: 2.13%
[1]; according to Table 7, 90% RH
  Hygroscopicity (in words): slightly hygroscopic
[2]; FaSSIF buffer, FaSSIF, 0.5 h
  solubility at 0.5 h: 3300 µg/mL (≈ 6.81 mM)
[2]; FaSSIF buffer, FaSSIF, 2 h
  solubility at 2 h: 3270 µg/mL (≈ 6.75 mM)
[2]; FaSSIF buffer, FaSSIF, 24 h
  solubility at 24 h: 2340 µg/mL (≈ 4.83 mM)
[2]; FeSSIF buffer, FeSSIF, 0.5 h
  solubility at 0.5 h: 1320 µg/mL (≈ 2.73 mM)
[2]; FeSSIF buffer, FeSSIF, 2 h
  solubility at 2 h: 1380 µg/mL (≈ 2.85 mM)
[2]; FeSSIF buffer, FeSSIF, 24 h
  solubility at 24 h: 1290 µg/mL (≈ 2.66 mM)
[2]; SGF (FIG. 41)
  Solubility (in words): low solubility
[2]; 0.5 h
  Solubility: Not detected
[2]; 2 h
  Solubility: Not detected
[2]; 24 h
  Solubility: Not detected
[2]; Water, 0.5 h
  solubility at 0.5 h: 4100 µg/mL (≈ 8.46 mM)
[2]; Water, 2 h
  solubility at 2 h: 4190 µg/mL (≈ 8.65 mM)
[2]; Water, 24 h
  solubility at 24 h: 3870 µg/mL (≈ 7.99 mM)
[2]; water, FaSSIF, FeSSIF (FIG. 41)
  Solubility (in words): high solubility
[3]; equal amounts mixed, RT/50, magnetic stirring ~1000 rpm, about 20 hours, listed as crystal form D
  Crystal form conversion / relative stability in suspension competition test: more stable than crystal form B, C
[3]; judged from DSC data (Tables 9-10)
  Thermodynamic stability of crystal form A versus crystal form D: more stable at lower temperatures
[4]; CM5 chip coupled to the protein, read-out: Affinity constant KD
  Kd: 1120 nM
[4]; CM5 chip, read-out: Binding constant ka
  kon: 1090 M⁻¹ s⁻¹
[4]; listed as TJ0113
  Remarks (kind of binding): specific
[4]; listed as sodium salt D crystal form of TJ01-013
  Remarks (kind of binding): can bind specifically to Mcl-1 protein
[5]; SD rats, single gavage 10, 30, 90 mg/kg
  Dose relationship of exposure (Cmax, AUC0-24 h): the increase ratio is smaller than that of the dose
[5]; SD rats, single gavage and intravenous administration
  Pharmacokinetic characteristics (in words): rapid absorption, low apparent volume of distribution and moderate elimination rate
[5]; SD rats, single intravenous administration
  Tissue distribution (in words): low degree tissue distribution
[5]; SD rats, single intravenous, single and multiple gavage
  Difference of plasma pharmacokinetic parameters between male and female: no significant difference between male and female
[5]; both sexes, SD, rat, plasma, iv, 10 mg/kg, SD rats, single intravenous injection, 10 mg/kg
  AUC(0-t): 112000 ± 11000 ng·h/mL
[5]; both sexes, SD, rat, plasma, po, 10 mg/kg, SD rats, single gavage
  AUC(0-inf): 11100 ± 4320 ng·h/mL
[5]; [6]
  AUC(0-t): 10700 ± 4440 ng·h/mL
  MRT inf: 4.82 ± 1.4 h
[5]; [7]
  AUC(0-inf): 26600 ± 14200 ng·h/mL
  AUC(0-t): 26200 ± 13700 ng·h/mL
  MRT inf: 3.86 ± 0.947 h
[5]; both sexes, SD, rat, plasma, po, 30 mg/kg, SD rats, single gavage
  AUC(0-inf): 22800 ± 6860 ng·h/mL
[5]; [8]
  AUC(0-t): 22100 ± 6660 ng·h/mL
  MRT inf: 5.11 ± 1.84 h
[5]; both sexes, SD, rat, plasma, po, 90 mg/kg, SD rats, single gavage
  AUC(0-inf): 50100 ± 12200 ng·h/mL
[5]; [9]
  AUC(0-t): 49900 ± 12200 ng·h/mL
  MRT inf: 3.94 ± 0.754 h
[5]; both sexes, Sprague-Dawley (SD), rat, plasma, iv, 10 mg/kg, SD rats, single intravenous injection
  AUC(0-inf): 113000 ± 11000 ng·h/mL
[5]; both sexes, Sprague-Dawley (SD), rat, plasma, iv, 10 mg/kg, SD rats, single intravenous injection, 10 mg/kg
  MRT inf: 2.06 ± 0.192 h
[5]; both sexes, Sprague-Dawley (SD), rat, plasma, po, SD rats, multiple gavage, 30 mg/kg once per day for 7 days
  Cmax at 7 days: 5900 ± 3210 ng/mL
[5]; both sexes, Sprague-Dawley (SD), rat, plasma, po, SD rats, multiple gavage, 30 mg/kg once per day for 7 days, median (min, max)
  Tmax at 7 days: 1 h
[5]; both sexes, Sprague-Dawley (SD), rat, plasma, po, SD rats, single gavage, 10 mg/kg, median (min, max)
  Tmax: 0.5 h
[5]; both sexes, Sprague-Dawley (SD), rat, plasma, po, SD rats, single gavage, 30 mg/kg, median (min, max)
  Tmax: 0.5 h
[5]; both sexes, Sprague-Dawley (SD), rat, plasma, po, SD rats, single gavage, 90 mg/kg, median (min, max)
  Tmax: 1 h
[5]; [10]
  clearance: 1.49 mL/min/kg
  half-life: 2.26 ± 0.222 h
  MRT last: 2 ± 0.168 h
[5]; both sexes, rat, plasma, oral, SD rats, single gavage 10 mg/kg versus intravenous 10 mg/kg, read-out: F (absolute bioavailability)
  bioavailability: 9.55%
[5]; both sexes, rat, plasma, po, SD rats, multiple gavage, 30 mg/kg once per day for 7 days
  half-life at 7 days: 1.94 ± 0.898 h
[5]; [11]
  Cmax: 3130 ± 1660 ng/mL
  half-life: 3.86 ± 1.47 h
  MRT last: 3.84 ± 0.708 h
[5]; [12]
  Cmax: 4730 ± 1200 ng/mL
  half-life: 3.54 ± 2.55 h
  MRT last: 4.42 ± 0.923 h
[5]; [13]
  Cmax: 9980 ± 1850 ng/mL
  half-life: 2.08 ± 0.754 h
  MRT last: 3.89 ± 0.756 h
[5]; both sexes, rat, plasma, SD rats, single intravenous injection, 10 mg/kg, read-out: C5 min
  concentration at 5 min: 79900 ± 11600 ng/mL
[5]; both sexes, rat, plasma, SD rats, single intravenous injection, 10 mg/kg, read-out: Vss
  Vd: 0.184 L/kg
[5]; rats, 30 mg/kg gavage once a day for 7 consecutive days
  Accumulation: no obvious accumulation
